Among the data in ChEMBL document CHEMBL3132769, “Fragment growing to retain or alter the selectivity of anchored kinase hinge-binding fragments” (Medchemcomm, 2014) are inhibition values, retold here.

Assay [1] addresses T1, Mitogen-activated protein kinase 12 (Homo sapiens) (UniProt P53778).
T1 sequence (whole entry): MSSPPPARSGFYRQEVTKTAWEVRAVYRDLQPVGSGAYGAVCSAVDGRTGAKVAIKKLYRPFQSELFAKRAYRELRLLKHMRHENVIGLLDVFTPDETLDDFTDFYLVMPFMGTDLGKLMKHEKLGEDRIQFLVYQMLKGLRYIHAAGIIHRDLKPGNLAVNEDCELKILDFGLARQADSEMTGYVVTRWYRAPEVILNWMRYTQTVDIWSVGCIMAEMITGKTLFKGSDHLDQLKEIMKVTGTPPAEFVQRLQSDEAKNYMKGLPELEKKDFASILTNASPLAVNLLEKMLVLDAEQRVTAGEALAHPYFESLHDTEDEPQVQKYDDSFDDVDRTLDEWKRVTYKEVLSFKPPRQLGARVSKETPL
Briefly: Inhibition of human full length p38 gamma expressed in Escherichia coli cell assessed as substrate phosphorylation using fluorescence-labelled peptides as substrate at 2 uM after 90 mins by microfluidic peptide phosphorylation assay.

Assay [2] deals with T2, Protein kinase C epsilon type (Homo sapiens) (UniProt Q02156).
T2 sequence (whole entry): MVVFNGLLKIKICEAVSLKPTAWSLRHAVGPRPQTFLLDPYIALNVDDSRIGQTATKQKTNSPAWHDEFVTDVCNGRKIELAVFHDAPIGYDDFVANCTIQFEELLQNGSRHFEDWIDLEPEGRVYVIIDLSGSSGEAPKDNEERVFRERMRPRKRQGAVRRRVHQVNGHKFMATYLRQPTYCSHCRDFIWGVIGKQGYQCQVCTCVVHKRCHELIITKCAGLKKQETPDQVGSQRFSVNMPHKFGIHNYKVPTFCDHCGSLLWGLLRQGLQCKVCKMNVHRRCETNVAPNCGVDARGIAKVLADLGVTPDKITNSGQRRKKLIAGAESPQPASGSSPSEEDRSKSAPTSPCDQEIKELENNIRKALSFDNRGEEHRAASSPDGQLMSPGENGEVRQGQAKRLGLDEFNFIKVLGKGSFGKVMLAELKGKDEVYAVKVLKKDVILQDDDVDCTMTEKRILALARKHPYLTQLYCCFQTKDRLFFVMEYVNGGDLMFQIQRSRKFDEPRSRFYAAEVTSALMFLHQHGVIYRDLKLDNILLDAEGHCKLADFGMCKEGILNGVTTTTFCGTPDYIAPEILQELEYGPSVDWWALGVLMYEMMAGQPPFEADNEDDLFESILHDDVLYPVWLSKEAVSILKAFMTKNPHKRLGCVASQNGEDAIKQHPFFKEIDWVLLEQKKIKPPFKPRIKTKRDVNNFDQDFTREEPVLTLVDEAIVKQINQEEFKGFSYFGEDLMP
To be noted: 0.1 uM.
Description: Inhibition of human truncated PKC epsilon expressed in baculovirus assessed as substrate phosphorylation using fluorescence-labelled peptides as substrate at 0.1 uM after 90 mins by microfluidic peptide phosphorylation assay

Assay [3] addresses Ribosomal protein S6 kinase alpha-2 (Homo sapiens) (UniProt Q15349). Briefly: Inhibition of human full length RSK3 expressed in baculovirus assessed as substrate phosphorylation using fluorescence-labelled peptides as substrate at 0.2 uM after 90 mins by microfluidic peptide phosphorylation assay.
Assay [4] deals with Ribosomal protein S6 kinase alpha-5 (Homo sapiens) (UniProt O75582). Nature of the assay: Inhibition of human full length MSK1 expressed in baculovirus assessed as substrate phosphorylation using fluorescence-labelled peptides as substrate at 0.2 uM after 90 mins by microfluidic peptide phosphorylation assay.
In assay [5] the target is Protein kinase C alpha type (Homo sapiens) (UniProt P17252). Nature of the assay: Inhibition of human truncated PKC alpha expressed in baculovirus assessed as substrate phosphorylation using fluorescence-labelled peptides as substrate at 95 uM after 90 mins by microfluidic peptide phosphorylation assay.
Assay [6] deals with T3, Testis-specific serine/threonine-protein kinase 2 (Homo sapiens) (UniProt Q96PF2).
T3 sequence (whole entry): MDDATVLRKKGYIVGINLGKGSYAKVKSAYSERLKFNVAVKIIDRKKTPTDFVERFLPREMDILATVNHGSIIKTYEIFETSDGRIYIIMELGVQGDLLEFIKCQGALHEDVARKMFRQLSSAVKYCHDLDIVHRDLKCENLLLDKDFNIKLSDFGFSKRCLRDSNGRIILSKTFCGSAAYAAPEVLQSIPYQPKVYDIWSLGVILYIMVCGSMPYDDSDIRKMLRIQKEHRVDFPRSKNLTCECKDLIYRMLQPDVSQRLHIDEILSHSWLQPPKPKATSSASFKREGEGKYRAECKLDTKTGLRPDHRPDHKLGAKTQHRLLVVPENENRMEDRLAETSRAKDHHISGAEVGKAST
Nature of the assay: Inhibition of human full length TSSK2 expressed in baculovirus assessed as substrate phosphorylation using fluorescence-labelled peptides as substrate at 70 uM after 90 mins by microfluidic peptide phosphorylation assay.

Assay [7] concerns the target Mitogen-activated protein kinase 14 (Homo sapiens) (UniProt Q16539). Nature of the assay: Inhibition of human truncated p38 alpha expressed in Escherichia coli cell assessed as substrate phosphorylation using fluorescence-labelled peptides as substrate at 70 uM after 90 mins by microfluidic peptide phosphorylation assay.
Assay [8] has as its target T3, Testis-specific serine/threonine-protein kinase 2 (Homo sapiens). Briefly: Inhibition of human full length TSSK2 expressed in baculovirus assessed as substrate phosphorylation using fluorescence-labelled peptides as substrate at 1000 uM after 90 mins by microfluidic peptide phosphorylation assay.
In assay [9] the target is T2, Protein kinase C epsilon type (Homo sapiens). Briefly: Inhibition of human truncated PKC epsilon expressed in baculovirus assessed as substrate phosphorylation using fluorescence-labelled peptides as substrate at 1000 uM after 90 mins by microfluidic peptide phosphorylation assay.

Ribosomal protein S6 kinase alpha-2 (Homo sapiens), sequence (Q15349 whole entry): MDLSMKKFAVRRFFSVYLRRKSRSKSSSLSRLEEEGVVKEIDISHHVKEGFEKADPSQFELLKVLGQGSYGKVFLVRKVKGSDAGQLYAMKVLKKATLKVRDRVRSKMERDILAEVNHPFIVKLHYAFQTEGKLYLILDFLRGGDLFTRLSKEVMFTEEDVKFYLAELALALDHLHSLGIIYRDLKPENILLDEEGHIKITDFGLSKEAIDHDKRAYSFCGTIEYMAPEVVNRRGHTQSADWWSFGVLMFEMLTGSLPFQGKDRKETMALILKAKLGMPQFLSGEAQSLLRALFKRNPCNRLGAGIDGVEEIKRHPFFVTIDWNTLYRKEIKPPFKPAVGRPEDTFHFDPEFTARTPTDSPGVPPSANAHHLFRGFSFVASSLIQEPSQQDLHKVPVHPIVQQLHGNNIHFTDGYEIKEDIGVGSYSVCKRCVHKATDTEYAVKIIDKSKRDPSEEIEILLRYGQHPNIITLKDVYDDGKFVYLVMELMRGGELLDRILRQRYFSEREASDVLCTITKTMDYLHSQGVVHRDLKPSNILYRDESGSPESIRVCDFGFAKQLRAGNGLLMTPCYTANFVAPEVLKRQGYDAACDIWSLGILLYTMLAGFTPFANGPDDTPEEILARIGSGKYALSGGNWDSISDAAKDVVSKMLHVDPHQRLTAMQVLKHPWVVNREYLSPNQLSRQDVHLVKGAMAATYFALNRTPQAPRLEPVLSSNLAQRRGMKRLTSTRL
Ribosomal protein S6 kinase alpha-5 (Homo sapiens), sequence (O75582 whole entry, looked up, the tested form may be a part): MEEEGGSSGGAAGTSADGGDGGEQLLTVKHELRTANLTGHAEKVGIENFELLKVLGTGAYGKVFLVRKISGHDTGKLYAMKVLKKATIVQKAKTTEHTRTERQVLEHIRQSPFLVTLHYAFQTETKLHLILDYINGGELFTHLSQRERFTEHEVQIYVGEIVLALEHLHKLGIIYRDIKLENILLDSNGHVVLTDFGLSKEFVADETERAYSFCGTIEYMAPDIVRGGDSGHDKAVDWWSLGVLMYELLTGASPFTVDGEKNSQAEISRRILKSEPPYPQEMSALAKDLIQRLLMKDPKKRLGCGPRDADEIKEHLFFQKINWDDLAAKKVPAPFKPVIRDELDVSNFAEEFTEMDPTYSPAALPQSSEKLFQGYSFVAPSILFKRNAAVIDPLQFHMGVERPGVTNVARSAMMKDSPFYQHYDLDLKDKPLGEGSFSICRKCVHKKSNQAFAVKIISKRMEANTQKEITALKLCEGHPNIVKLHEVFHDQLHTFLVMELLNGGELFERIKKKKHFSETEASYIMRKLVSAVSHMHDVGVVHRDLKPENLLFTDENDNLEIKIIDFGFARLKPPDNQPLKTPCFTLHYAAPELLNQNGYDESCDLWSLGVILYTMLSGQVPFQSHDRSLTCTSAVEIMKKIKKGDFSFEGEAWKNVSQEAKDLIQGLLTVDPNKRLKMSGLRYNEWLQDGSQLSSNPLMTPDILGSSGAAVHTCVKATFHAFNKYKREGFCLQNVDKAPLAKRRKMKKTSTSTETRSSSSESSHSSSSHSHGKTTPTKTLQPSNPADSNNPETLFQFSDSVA
Mitogen-activated protein kinase 14 (Homo sapiens), sequence (Q16539 whole entry, the tested form may be a part): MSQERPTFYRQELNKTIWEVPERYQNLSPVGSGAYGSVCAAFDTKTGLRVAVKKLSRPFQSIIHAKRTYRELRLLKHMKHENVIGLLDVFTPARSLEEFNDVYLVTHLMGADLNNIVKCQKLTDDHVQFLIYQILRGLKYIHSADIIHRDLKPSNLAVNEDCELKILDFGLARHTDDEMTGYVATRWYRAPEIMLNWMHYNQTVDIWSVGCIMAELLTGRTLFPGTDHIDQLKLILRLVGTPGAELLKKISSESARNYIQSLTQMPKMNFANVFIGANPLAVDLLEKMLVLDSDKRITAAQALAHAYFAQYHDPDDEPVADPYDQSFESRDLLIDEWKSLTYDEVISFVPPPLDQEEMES

The term inhibition denotes the drop in the measured response relative to a control, in per cent. `NC1CCN(c2ncnc3[nH]ccc23)CC1`: the inhibition in [1] was found to be 1.5%.
Turning to `C[C@H](CN(C)C)Oc1nc(Nc2cc3cccc(Cl)c3cn2)cnc1C#N`, the inhibition in [2] came to 0%.
Turning to `Clc1ccc(C2(c3ccc(-c4ncnc5[nH]cnc45)cc3)CCNCC2)cc1`, the values for the inhibition in [3] and in assay [4] were 40% and 90%, respectively.
Turning to `NCCc1ccc(-c2ncnc3[nH]cnc23)cc1`, the inhibition in assay [5] is 69.5%.
Consider `CNCc1ccc(-c2ncnc3[nH]cnc23)cc1`, for which the results for the inhibition in [6] and in [7] were 10% and 0%, respectively.
On to `c1cnc2[nH]ccc2c1`, for which the figures for the inhibition in [8] and in assay [9] were 37% and 38%, respectively.
